Results on 15 molecules are retold here after ChEMBL document CHEMBL3046842, “Antimicrobial and insect antifeedant activities of some Trogers bases” (2012).

In one experiment the test system is Penicillium. The experiment can be described thus: Antifungal activity against Penicillium at 50 ug/ml after 72 hrs by disc diffusion method. Format: functional, organism-based.
Another experiment relates to Aspergillus niger. The experiment can be described thus: Antifungal activity against Aspergillus niger at 50 ug/ml after 72 hrs by disc diffusion method. Format: functional, organism-based. A general note: Agar diffusion results depend on both activity and mobility in agar.
The next experiment concerns Staphylococcus aureus. The experiment can be described thus: Antibacterial activity against Staphylococcus aureus at 250 ug/ml after 24 to 45 hrs by disc diffusion method. Format: functional. The note with it: read-out: IZ.
In another experiment the test system is Enterococcus faecalis. Briefly: Antibacterial activity against Enterococcus faecalis at 250 ug/ml after 24 to 45 hrs by disc diffusion method. It is filed as functional. Particulars: for zone of inhibition at 250 µg/mL: read-out: IZ.
The next experiment concerns Proteus vulgaris. The experiment can be described thus: Antibacterial activity against Proteus vulgaris at 250 ug/ml after 24 to 45 hrs by disc diffusion method. It is filed as functional. The note with it: for zone of inhibition at 250 µg/mL: read-out: IZ.
The subject of a further experiment is Escherichia coli. The experiment can be described thus: Antibacterial activity against Escherichia coli at 250 ug/ml after 24 to 45 hrs by disc diffusion method. It is filed as functional. Particulars: read-out: IZ.
Another experiment deals with Pseudomonas. Briefly: Antibacterial activity against Pseudomonas at 250 ug/ml after 24 to 45 hrs by disc diffusion method. Format: functional. Particulars: read-out: IZ.
The test system of another experiment is Candida albicans. The experiment can be described thus: Antifungal activity against Candida albicans at 250 ug/ml after 72 hrs by disc diffusion method. Format: functional. Particulars: for zone of inhibition at 250 µg/mL: read-out: IZ.
In the next experiment the test system is Klebsiella pneumoniae. Briefly: Antibacterial activity against Klebsiella pneumoniae at 250 ug/ml after 24 to 45 hrs by disc diffusion method. Format: functional. Particulars: read-out: IZ.

The source made the active and inactive calls.

`Cc1cc(N)cc2c1N1Cc3cc(N)cc(C)c3N(C2)C1`: the outcome in the experiment with Penicillium and with Aspergillus niger was inactive. Also, the zone of inhibition at 250 µg/mL in the experiment on Staphylococcus aureus stood at 13 mm; in the experiment with Enterococcus faecalis it was 8 mm; in the experiment with Proteus vulgaris, 13 mm; with Escherichia coli it was 13 mm; in the experiment with Pseudomonas it was 13 mm; in the experiment with Candida albicans, 13 mm. Also, the zone of inhibition at 250 µg/mL with Klebsiella pneumoniae came out at 13 mm.

As for `CCOc1ccc2c(c1)CN1CN2Cc2cc(OCC)ccc21`, the result in the experiment with Penicillium and with Aspergillus niger was Active. Moreover, the zone of inhibition at 250 µg/mL is 20 mm in the experiment with Staphylococcus aureus; 13 mm in the experiment on Proteus vulgaris; 20 mm in the experiment with Escherichia coli; 20 mm with Pseudomonas; 8 mm in the experiment on Candida albicans; 13 mm in the experiment on Klebsiella pneumoniae. Also, the outcome with Enterococcus faecalis was inactive.

On to `CCCOC(=O)c1ccc2c(c1)CN1CN2Cc2cc(C(=O)OCCC)ccc21`, for which the result in the experiment with Penicillium and in the experiment on Aspergillus niger was Active. Besides, the zone of inhibition at 250 µg/mL in the experiment with Staphylococcus aureus is 20 mm; with Enterococcus faecalis, 20 mm; with Proteus vulgaris, 13 mm; with Escherichia coli, 13 mm; with Pseudomonas it was 20 mm; in the experiment on Candida albicans it was 13 mm. Also, the zone of inhibition at 250 µg/mL in the experiment on Klebsiella pneumoniae is 20 mm.

As to `COc1cc(C)c2c(c1)CN1CN2Cc2cc(OC)cc(C)c21`, the result in the experiment with Penicillium was Active. In the experiment with Aspergillus niger, the result was inactive. Moreover, the zone of inhibition at 250 µg/mL in the experiment on Staphylococcus aureus was found to be 20 mm; in the experiment on Enterococcus faecalis it was 13 mm; in the experiment on Proteus vulgaris, 8 mm; in the experiment on Escherichia coli, 20 mm; in the experiment on Pseudomonas, 20 mm; in the experiment with Candida albicans, 20 mm. The zone of inhibition at 250 µg/mL in the experiment with Klebsiella pneumoniae worked out at 20 mm.

`Cc1cc([N+](=O)[O-])cc2c1N1Cc3cc([N+](=O)[O-])cc(C)c3N(C2)C1`: the result with Penicillium and in the experiment with Aspergillus niger was inactive. In addition, the zone of inhibition at 250 µg/mL in the experiment on Staphylococcus aureus turned out to be 13 mm; in the experiment with Enterococcus faecalis, 8 mm; in the experiment on Proteus vulgaris, 13 mm; in the experiment on Escherichia coli, 13 mm; with Pseudomonas it was 13 mm; with Candida albicans, 13 mm. Further, the zone of inhibition at 250 µg/mL in the experiment on Klebsiella pneumoniae was 13 mm.

As to `Cc1cc(Br)c2c(c1)CN1CN2Cc2cc(C)cc(Br)c21`, the result in the experiment on Penicillium, in the experiment with Aspergillus niger and with Enterococcus faecalis was inactive. The zone of inhibition at 250 µg/mL with Staphylococcus aureus was 13 mm; in the experiment with Proteus vulgaris, 13 mm; with Escherichia coli it was 13 mm; in the experiment with Pseudomonas, 13 mm; in the experiment on Candida albicans it was 8 mm; in the experiment on Klebsiella pneumoniae it was 13 mm.

As for `Cc1ccc2c(c1)CN1CN2Cc2cc(C)ccc21`, the result in the experiment on Penicillium, in the experiment on Aspergillus niger and in the experiment with Enterococcus faecalis was inactive. In addition, the zone of inhibition at 250 µg/mL amounted to 13 mm in the experiment on Staphylococcus aureus; 8 mm in the experiment on Proteus vulgaris; 8 mm in the experiment with Escherichia coli; 8 mm in the experiment on Pseudomonas; 13 mm with Candida albicans; 8 mm in the experiment on Klebsiella pneumoniae.

For the molecule `Cc1cc2c(cc1Br)N1Cc3cc(C)c(Br)cc3N(C2)C1`, the outcome in the experiment with Penicillium and with Aspergillus niger was inactive. For the same molecule, the zone of inhibition at 250 µg/mL with Staphylococcus aureus was determined as 13 mm; with Enterococcus faecalis, 13 mm; in the experiment on Proteus vulgaris, 8 mm; in the experiment with Escherichia coli, 8 mm; in the experiment on Pseudomonas, 8 mm; with Candida albicans, 13 mm. For the same molecule, the zone of inhibition at 250 µg/mL in the experiment with Klebsiella pneumoniae worked out at 8 mm.

With `Nc1ccc2c(c1)CN1CN2Cc2cc(N)ccc21`, the result in the experiment on Penicillium, with Aspergillus niger and in the experiment on Enterococcus faecalis was inactive. For the same molecule, the zone of inhibition at 250 µg/mL with Staphylococcus aureus, in the experiment with Proteus vulgaris, in the experiment on Escherichia coli, in the experiment with Pseudomonas, in the experiment on Candida albicans and with Klebsiella pneumoniae was 13 mm each time.

Consider `Cc1ccc2c(c1O)CN1CN2Cc2c1ccc(C)c2O`, for which the result in the experiment with Penicillium and in the experiment on Aspergillus niger was inactive. The zone of inhibition at 250 µg/mL came to 13 mm in the experiment with Staphylococcus aureus; 13 mm in the experiment on Enterococcus faecalis; 8 mm in the experiment on Proteus vulgaris; 8 mm in the experiment with Escherichia coli; 8 mm in the experiment with Pseudomonas; 13 mm with Candida albicans. For the same molecule, the zone of inhibition at 250 µg/mL in the experiment on Klebsiella pneumoniae was 8 mm.

Consider `CC(=O)c1cccc2c1N1Cc3cccc(C(C)=O)c3N(C2)C1`, for which the outcome in the experiment with Penicillium and in the experiment with Enterococcus faecalis was inactive. Also, the result in the experiment on Aspergillus niger was Active. The zone of inhibition at 250 µg/mL in the experiment on Staphylococcus aureus turned out to be 13 mm; in the experiment on Proteus vulgaris it was 8 mm; in the experiment on Escherichia coli, 8 mm; with Pseudomonas, 8 mm; with Candida albicans, 20 mm; in the experiment on Klebsiella pneumoniae, 8 mm.

With `Cc1ccc2c(c1C)N1Cc3ccc(C)c(C)c3N(C2)C1`, the result with Penicillium was Active. Besides, the outcome in the experiment with Aspergillus niger and with Proteus vulgaris was inactive. In addition, the zone of inhibition at 250 µg/mL stood at 8 mm in the experiment on Staphylococcus aureus; 8 mm with Enterococcus faecalis; 13 mm in the experiment with Escherichia coli; 8 mm in the experiment on Pseudomonas; 8 mm with Candida albicans; 13 mm in the experiment with Klebsiella pneumoniae.

Turning to `O=[N+]([O-])c1ccc2c(c1)CN1CN2Cc2cc([N+](=O)[O-])ccc21`, the outcome with Penicillium, in the experiment with Aspergillus niger and with Candida albicans was inactive. Moreover, the zone of inhibition at 250 µg/mL in the experiment with Staphylococcus aureus is 13 mm; in the experiment with Enterococcus faecalis, 20 mm; with Proteus vulgaris, 13 mm; in the experiment with Escherichia coli, 20 mm; with Pseudomonas, 13 mm; in the experiment with Klebsiella pneumoniae it was 13 mm.

Consider `Cc1cc(C#N)c2c(c1)CN1CN2Cc2cc(C)cc(C#N)c21`, for which the result in the experiment on Penicillium, in the experiment on Aspergillus niger and in the experiment with Enterococcus faecalis was inactive. The zone of inhibition at 250 µg/mL in the experiment with Staphylococcus aureus was determined as 8 mm; in the experiment with Proteus vulgaris, 8 mm; in the experiment on Escherichia coli it was 13 mm; in the experiment on Pseudomonas, 8 mm; in the experiment on Candida albicans it was 13 mm; in the experiment with Klebsiella pneumoniae, 8 mm.

With `Cc1cc(N)c2c(c1)CN1CN2Cc2cc(C)cc(N)c21`, the outcome in the experiment with Penicillium was Active. Moreover, the outcome with Aspergillus niger and in the experiment with Enterococcus faecalis was inactive. Also, the zone of inhibition at 250 µg/mL with Staphylococcus aureus, in the experiment on Proteus vulgaris, with Escherichia coli, in the experiment on Pseudomonas, with Candida albicans and in the experiment on Klebsiella pneumoniae was 13 mm throughout.
